The subject of assay [1] is P23H rat RGCs. In words: Light-evoked responses (intensity-response curves) of retinal ganglion cells recorded extracellularly from isolated P23H rat retina. Type of assay: cell-based. The settings on record: 500 nM JNJ16259685. The procedure: Sprague-Dawley (SD) rats (age range 13-44 weeks) and P23H-line 1 homozygous rats (age range 23-42 weeks) were used in this study. Both the SD rats and P23H rats were bred and housed in the same facility. Breeding pairs of SD rats were obtained from Harlan Laboratories (Indianapolis, Ind.). Breeding pairs of P23H-line 1 homozygous rats were generously donated by Dr. Matthew LaVail (University of California San Francisco, Calif.). The room light was kept on a 12 hour light/dark cycle using standard fluorescent lighting. During the light cycle the illumination at the level of the cages was 100-200 lux. All animal care procedures and experimental methods were approved by the appropriate Institutional Animal Care and Use Committee.
On the day of an experiment, a rat was euthanized with sodium pentobarbital (150 mg/kg, i.p.), and the eyes were removed and hemisected under normal room light. […]
Light from a mercury arc lamp illuminated an aperture that was focused on the retina from above through the 4× objective of the microscope. The image produced on the retina was either a 250-μm or 1.5-mm diameter spot, which was centered on the recorded RGC. […] The intensity of the unattenuated light stimulus on the retina measured with a spectroradiometer (ILT900-R, International Light Technologies, Peabody, Mass.) was 8.5×10^17 photons/cm^2/s. […]

The test system of assay [2] is P23H rat RGCs. The description is as above. The format is cell-based. The settings on record: 16 P23H rat RGCs, 500 nM JNJ16259685.

With `CO[C@H]1CC[C@@H](C(=O)c2ccc3nc4c(cc3c2)CCCO4)CC1` [JNJ16259685, 3,4-dihydro-2H-pyranol[2,3-b]quinolin-7-yl-(cis-4-methoxycyclohexyl)-methanone], the “average increase in light sensitivity” value with P23H rat RGCs [1] (16 P23H rat RGCs (15 ON-center, one OFF-center)) is 0.56 log units. Besides, in the assay on P23H rat RGCs [1] (16 P23H rat RGCs, P=0.007), the “increase in maximum peak response” value is given as 9.9%. In the assay on P23H rat RGCs [2] (mean±SD, before drug 0.89±0.41), the “dynamic operating range with drug” value was found to be 1.05±0.42 log unit. In addition, in the assay on P23H rat RGCs [2] (mean±SD, before drug 162±65), the “maximum peak response with drug” value came out at 178±64 spikes/s. For the same molecule, in the assay on P23H rat RGCs [2], the “factor by which the light the cells responded to was less intense than without drug” value was roughly 4 fold. The “increase in dynamic operating range” value in the assay with P23H rat RGCs [2] (not significant (P=0.239)) was 18%.

These data come from US20150038464A1, “METHODS OF INCREASING LIGHT RESPONSIVENESS IN A SUBJECT WITH RETINAL DEGENERATION” (The United States Government as represented by the …, priority 2012, published 2015).
